Laboratory results from patent publication US11312723B2, “Pyranopyrazole and pyrazolopyridine immunomodulators for treatment of autoimmune diseases” (The Rockefeller University, priority 2017, dated 2022).

These compounds were tested against Human FXIIa (Homo sapiens (Human), UniProt P00748) (assay: Factor XIIa (FXIIa) inhibitory activity, chromogenic substrate (Pefachrome XIIa) cleavage). Conditions: 10 min pre-incubation, Pefachrome XIIa 400 μM.
Assay type: biochemical
Procedure: Factor XIIa (FXIIa) Inhibitory Activity:
In a 96-well clear bottom plate, 80 μl of assay buffer was added to each well. Assay buffer consists of 0.5× Hank's Balanced Salt Solution (Invitrogen), buffered with 25 mM HEPES pH 7.4 (Invitrogen) and 0.5× Tris-buffered saline with Tween-20 0.05% (Santa Cruz Biotechnology). Test compounds were first dissolved in DMSO (Sigma) and then 4 μl were added to test wells containing assay buffer. Serial dilutions using an automated multi-channel pipette were used to generate a concentration range of approximately 1-100 μM. Human FXIIa (Enzyme Research Labs) was diluted in assay buffer to a final concentration of 12.5 nM. 80 μl of this enzyme solution was added to the assay wells. The enzyme/compound mixtures were incubated for 10 minutes at room temperature. Chromogenic substrate (Pefachrome XIIa; Enzyme Research Labs) was added to assay wells at a final concentration of 400 μM. The assay plate was spun for 1 minute at 1500 g and then read at 37° C. in a SpectraMax M2 plate reader (λ=405 nm). Activity was quantified as the rate of change in absorbance, which corresponds to the rate of substrate cleavage. IC50 values were determined as the concentration of inhibitor that produced 50% of the rate of change of control wells without any inhibitor. For compounds with activity <1 μM, the assay was repeated with a lower concentration range, typically from 10-1000 nM.

Sequence of Human FXIIa (P00748 373-615): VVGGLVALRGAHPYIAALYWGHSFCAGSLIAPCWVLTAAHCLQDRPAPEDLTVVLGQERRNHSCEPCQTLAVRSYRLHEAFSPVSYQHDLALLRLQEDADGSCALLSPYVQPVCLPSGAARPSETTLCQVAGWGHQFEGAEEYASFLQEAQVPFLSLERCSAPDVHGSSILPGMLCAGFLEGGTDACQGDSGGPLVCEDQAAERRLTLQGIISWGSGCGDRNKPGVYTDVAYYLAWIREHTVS
Sequence of Human FXIIa (P00748 20-372 partner): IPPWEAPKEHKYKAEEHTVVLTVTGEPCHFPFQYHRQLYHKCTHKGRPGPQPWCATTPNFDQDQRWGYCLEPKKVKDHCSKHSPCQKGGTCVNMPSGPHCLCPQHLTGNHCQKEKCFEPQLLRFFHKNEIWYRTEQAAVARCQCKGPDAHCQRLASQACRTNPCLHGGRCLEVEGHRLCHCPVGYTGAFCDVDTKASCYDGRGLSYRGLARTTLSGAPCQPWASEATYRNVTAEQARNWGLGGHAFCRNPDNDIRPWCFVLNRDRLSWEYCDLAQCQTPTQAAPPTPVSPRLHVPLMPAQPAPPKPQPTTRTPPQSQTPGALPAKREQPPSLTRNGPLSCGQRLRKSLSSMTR

IC50 | SMILES
0.05 µM | Cc1cccc2c1NCC[C@@H]2C(=O)n1nc2c(c1N)COCC2 (single isomer, unassigned) [Example 190, (S*)-(3-amino-6,7-dihydropyrano[4,3-c]pyrazol-2(4H)-yl)(8-methyl-1,2,3,4-tetrahydro-quinolin-4-yl)methanone]
12.5 µM | Cc1cc(F)cc2c1NCC[C@H]2C(=O)n1nc2c(c1N)COCC2 (single isomer, unassigned) [Example 192, (R*)-(3-amino-6,7-dihydropyrano[4,3-c]pyrazol-2(4H)-yl)(6-fluoro-8-methyl-1,2,3,4-tetrahydro-quinolin-4-yl)methanone]
0.04 µM | Cc1cc(F)cc2c1NCC[C@@H]2C(=O)n1nc2c(c1N)COCC2 (single isomer, unassigned) [Example 193, (S*)-(3-amino-6,7-dihydropyrano[4,3-c]pyrazol-2(4H)-yl)(6-fluoro-8-methyl-1,2,3,4-tetrahydro-quinolin-4-yl)methanone]
40 µM | Nc1c2c(nn1C(=O)[C@@H]1CCNc3ccc(F)cc31)COCC2 (single isomer, unassigned) [Example 197, (R*)-(3-amino-4,5-dihydropyrano[3,4-c]pyrazol-2(7H)-yl)(6-fluoro-1,2,3,4-tetrahydro-quinolin-4-yl)methanone]
80 µM | Cc1cccc2c1NCC[C@H]2C(=O)n1nc2c(c1N)CCOC2 (single isomer, unassigned) [Example 199, (R*)-(3-amino-4,5-dihydropyrano[3,4-c]pyrazol-2(7H)-yl)(8-methyl-1,2,3,4-tetrahydro-quinolin-4-yl)methanone]
16 µM | Nc1c2c(nn1C(=O)[C@@H]1CCNc3c(Cl)cccc31)COCC2 (single isomer, unassigned) [Example 201, (R*)-(3-amino-4,5-dihydropyrano[3,4-c]pyrazol-2(7H)-yl)(8-chloro-1,2,3,4-tetrahydro-quinolin-4-yl)methanone]
0.09 µM | Nc1c2c(nn1C(=O)[C@H]1CCNc3c(Cl)cccc31)COCC2 (single isomer, unassigned) [Example 202, (S*)-(3-amino-4,5-dihydropyrano[3,4-c]pyrazol-2(7H)-yl)(8-chloro-1,2,3,4-tetrahydro-quinolin-4-yl)methanone]
0.04 µM | Cc1cccc2c1NCC[C@@H]2C(=O)n1nc2c(c1N)CCN(CCO)C2 (single isomer, unassigned) [Example 204, (S*)-(3-amino-6-(2-hydroxyethyl)-4,5,6,7-tetrahydro-2H-pyrazolo[3,4-c]pyridin-2-yl)(8-methyl-1,2,3,4-tetrahydro-quinolin-4-yl)methanone]
> 25 µM | Cc1cccc2c1NCC[C@H]2C(=O)n1nc2c(c1N)CCN(CCO)C2 (single isomer, unassigned) [Example 205, (R*)-(3-amino-6-(2-hydroxyethyl)-4,5,6,7-tetrahydro-2H-pyrazolo[3,4-c]pyridin-2-yl)(8-methyl-1,2,3,4-tetrahydro-quinolin-4-yl)methanone]
0.08 µM | Cc1cc2c(C(=O)n3nc4c(c3N)CN(C(=O)OC(C)(C)C)CC4)cccc2[nH]1 [Example 1, tert-butyl 3-amino-2-[(2-methyl-1H-indol-4-yl)carbonyl]-4,5,6,7-tetrahydro-2H-pyrazolo[4,3-c]pyridin-5-carboxylate]
0.06 µM | Cc1cc2c(C(=O)n3nc4c(c3N)CNCC4)cccc2[nH]1 [Example 2, (3-amino-4,5,6,7-tetrahydropyrazolo[4,3-c]pyridin-2-yl)(2-methyl-1H-indol-4-yl)methanone]
> 40 µM | CCc1cc2c([nH]1)CCCC2C(=O)n1nc(N)c2c1CCN(C(=O)OCc1ccccc1)C2 (centres unmarked) [Example 5, benzyl 3-amino-1-(2-ethyl-4,5,6,7-tetrahydro-1H-indole-4-carbonyl)-6,7-dihydro-1H-pyrazolo[4,3-c]pyridine-5(4H)-carboxylate]
50 µM | Cc1cc2c(C(=O)n3nc(N)c4c3CN(C(=O)OC(C)(C)C)CC4)cccc2[nH]1 [Example 8, tert-butyl 3-amino-1-(2-methyl-1H-indole-4-carbonyl)-4,5-dihydro-1H-pyrazolo[3,4-c]pyridine-6(7H)-carboxylate]
0.03 µM | Cc1cc2c(C(=O)n3nc4c(c3N)CCN(Cc3ccccc3)C4)cccc2[nH]1 [Example 10, (3-amino-6-benzyl-4,5,6,7-tetrahydropyrazolo[3,4-c]pyridin-2-yl)(2-methyl-1H-indol-4-yl)methanone]
50 µM | Cc1cc2c(C(=O)n3nc(N)c4c3CN(Cc3ccccc3)CC4)cccc2[nH]1 [Example 11, (3-amino-6-benzyl-4,5,6,7-tetrahydropyrazolo[3,4-c]pyridin-1-yl)(2-methyl-1H-indol-4-yl)methanone]
> 90 µM | Cc1ccc2c(c1)C(C(=O)n1nc(N)c3c1CN(S(C)(=O)=O)CC3)CCN2 (centres unmarked) [Example 13, (3-amino-6-(methylsulfonyl)-4,5,6,7-tetrahydropyrazolo[3,4-c]pyridin-1-yl)(6-methyl-1,2,3,4-tetrahydroquinolin-4-yl)methanone]
30 µM | CS(=O)(=O)N1CCc2c(N)nn(C(=O)C3CCNc4ccc(F)cc43)c2C1 (centres unmarked) [Example 17, (3-amino-6-(methylsulfonyl)-4,5,6,7-tetrahydropyrazolo[3,4-c]pyridin-1-yl)(6-fluoro-1,2,3,4-tetrahydroquinolin-4-yl)methanone]
1.4 µM | COc1ccc2c(c1)C(C(=O)n1nc3c(c1N)CCN(S(C)(=O)=O)C3)CCN2 (centres unmarked) [Example 22, (3-amino-6-(methylsulfonyl)-4,5,6,7-tetrahydropyrazolo[3,4-c]pyridin-2-yl)(6-methoxy-1,2,3,4-tetrahydroquinolin-4-yl)methanone]
> 60 µM | COc1ccc2c(c1)C(C(=O)n1nc(N)c3c1CN(S(C)(=O)=O)CC3)CCN2 (centres unmarked) [Example 23, (3-amino-6-(methylsulfonyl)-4,5,6,7-tetrahydropyrazolo[3,4-c]pyridin-1-yl)(6-methoxy-1,2,3,4-tetrahydroquinolin-4-yl)methanone]
75 µM | Cn1cc2c(c1)C(C(=O)n1nc(N)c3c1CN(S(C)(=O)=O)CC3)CCC2 (centres unmarked) [Example 27, (3-amino-6-(methylsulfonyl)-4,5,6,7-tetrahydropyrazolo[3,4-c]pyridin-1-yl)(2-methyl-4,5,6,7-tetrahydro-2H-isoindol-4-yl)methanone]
> 60 µM | Nc1nn(C(=O)C2CCNc3ccc(F)cc32)c2c1CCN(c1ccccc1)C2 (centres unmarked) [Example 29, (3-amino-6-phenyl-4,5,6,7-tetrahydropyrazolo[3,4-c]pyridin-1-yl)(6-fluoro-1,2,3,4-tetrahydroquinolin-4-yl)methanone]
40 µM | CCc1ccc2c(c1)C(C(=O)n1nc(N)c3c1CN(S(C)(=O)=O)CC3)CCN2 (centres unmarked) [Example 31, (3-amino-6-(methylsulfonyl)-4,5,6,7-tetrahydropyrazolo[3,4-c]pyridin-1-yl)(6-ethyl-1,2,3,4-tetrahydroquinolin-4-yl)methanone]
70 µM | CS(=O)(=O)N1CCc2c(N)nn(C(=O)C3CCNc4c(F)cccc43)c2C1 (centres unmarked) [Example 38, (3-amino-6-(methylsulfonyl)-4,5,6,7-tetrahydropyrazolo[3,4-c]pyridin-1-yl)(8-fluoro-1,2,3,4-tetrahydroquinolin-4-yl)methanone]
> 80 µM | CS(=O)(=O)N1CCc2c(N)nn(C(=O)C3CCNc4ncccc43)c2C1 (centres unmarked) [Example 42, (3-amino-6-(methylsulfonyl)-4,5,6,7-tetrahydropyrazolo[3,4-c]pyridin-1-yl)(1,2,3,4-tetrahydro-1,8-naphthyridin-4-yl)methanone]
4 µM | CS(=O)(=O)N1CCc2c(nn(C(=O)C3CC(=O)Nc4ccc(F)cc43)c2N)C1 (centres unmarked) [Example 43, 4-(3-amino-6-(methylsulfonyl)-4,5,6,7-tetrahydro-2H-pyrazolo[3,4-c]pyridine-2-carbonyl)-6-fluoro-3,4-dihydroquinolin-2(1H)-one]
> 80 µM | CC(C)c1ccc2c(c1)C(C(=O)n1nc(N)c3c1CN(S(C)(=O)=O)CC3)CCN2 (centres unmarked) [Example 46, (3-amino-6-(methylsulfonyl)-4,5,6,7-tetrahydropyrazolo[3,4-c]pyridin-1-yl)(6-isopropyl-1,2,3,4-tetrahydroquinolin-4-yl)methanone]
8.5 µM | CC(=O)Nc1ccc2c(c1)C(C(=O)n1nc3c(c1N)CCN(S(C)(=O)=O)C3)CCN2 (centres unmarked) [Example 47, N-(4-(3-amino-6-(methylsulfonyl)-4,5,6,7-tetrahydro-2H-pyrazolo[3,4-c]pyridine-2-carbonyl)-1,2,3,4-tetrahydroquinolin-6-yl)acetamide]
> 30 µM | CC(=O)Nc1ccc2c(c1)C(C(=O)n1nc(N)c3c1CN(S(C)(=O)=O)CC3)CCN2 (centres unmarked) [Example 48, N-(4-(3-amino-6-(methylsulfonyl)-4,5,6,7-tetrahydro-1H-pyrazolo[3,4-c]pyridine-1-carbonyl)-1,2,3,4-tetrahydroquinolin-6-yl)acetamide]
> 80 µM | CS(=O)(=O)N1CCc2c(N)nn(C(=O)C3CCNc4ccc(-c5ccccc5)cc43)c2C1 (centres unmarked) [Example 50, (3-amino-6-(methylsulfonyl)-4,5,6,7-tetrahydropyrazolo[3,4-c]pyridin-1-yl)(6-phenyl-1,2,3,4-tetrahydroquinolin-4-yl)methanone]
